In patent US10004732B2 (Novartis AG, priority 2014, dated 2018):
Counter-ions that a name gives are not always drawn.

Columns and labels:
[1] = biological target: PI 3-kinase beta (Homo sapiens, UniProt P42338); assay: Kinase Glo Luminescent Kinase Assay (Kglo), assay B; assay type: biochemical; conditions: read-out: Assay B PI3Kβ IC50
[2] = biological target: PI 3-kinase delta (Homo sapiens, UniProt O00329); assay: TR-FRET Adapta assay, assay F; conditions: read-out: Assay F PI3Kδ IC50
[3] = biological target: PI 3-kinase gamma (Homo sapiens, UniProt P48736); assay: TR-FRET Adapta assay, assay E; assay type: biochemical; conditions: read-out: Assay E PI3Kγ IC50
[4] = Microsomal clearance assay (M); conditions: intrinsic clearance in rat liver microsomes
Procedure: The experiments were performed in 96-well glass plates at 37° C. on an automated Tecan EVO platform. Test compounds at a concentration of 10 mM in pure DMSO were diluted 1:1000 in water to 10 μM. […] Reactions were initiated by the addition of 150 μL of a cofactor solution containing 2 mM NADPH.

[5] = biological target: PI 3-kinase alpha (Homo sapiens, UniProt P42336); assay: Kinase Glo Luminescent Kinase Assay (Kglo), assay A; assay type: biochemical; conditions: read-out: Assay A PI3Kα IC50
[6] = biological target: PI 4-kinase beta (Homo sapiens, UniProt Q9UBF8); assay: Kinase Glo Luminescent Kinase Assay (Kglo), assay D; assay type: biochemical; conditions: read-out: Assay D PI4Kβ IC50
[7] = biological target: mTOR (Homo sapiens, UniProt P42345); assay: Lanthascreen kinase binding assay, assay G; conditions: read-out: Assay G mTOR IC50
Procedure: Lanthascreen™ Kinase Binding Assay for mTOR (G)
Binding of an inhibitor to the kinase competes for binding with the tracer, resulting in a loss of FRET.
50 nL of compound dilutions were dispensed onto white 384-well small volume polystyrene plate.

[8] = biological target: Vps34 (Homo sapiens, UniProt Q8NEB9); assay: Kinase Glo Luminescent Kinase Assay (Kglo), assay C; assay type: biochemical; conditions: read-out: Assay C VPS34 IC50
Chain of Vps34 (Q8NEB9 whole entry, species assumed): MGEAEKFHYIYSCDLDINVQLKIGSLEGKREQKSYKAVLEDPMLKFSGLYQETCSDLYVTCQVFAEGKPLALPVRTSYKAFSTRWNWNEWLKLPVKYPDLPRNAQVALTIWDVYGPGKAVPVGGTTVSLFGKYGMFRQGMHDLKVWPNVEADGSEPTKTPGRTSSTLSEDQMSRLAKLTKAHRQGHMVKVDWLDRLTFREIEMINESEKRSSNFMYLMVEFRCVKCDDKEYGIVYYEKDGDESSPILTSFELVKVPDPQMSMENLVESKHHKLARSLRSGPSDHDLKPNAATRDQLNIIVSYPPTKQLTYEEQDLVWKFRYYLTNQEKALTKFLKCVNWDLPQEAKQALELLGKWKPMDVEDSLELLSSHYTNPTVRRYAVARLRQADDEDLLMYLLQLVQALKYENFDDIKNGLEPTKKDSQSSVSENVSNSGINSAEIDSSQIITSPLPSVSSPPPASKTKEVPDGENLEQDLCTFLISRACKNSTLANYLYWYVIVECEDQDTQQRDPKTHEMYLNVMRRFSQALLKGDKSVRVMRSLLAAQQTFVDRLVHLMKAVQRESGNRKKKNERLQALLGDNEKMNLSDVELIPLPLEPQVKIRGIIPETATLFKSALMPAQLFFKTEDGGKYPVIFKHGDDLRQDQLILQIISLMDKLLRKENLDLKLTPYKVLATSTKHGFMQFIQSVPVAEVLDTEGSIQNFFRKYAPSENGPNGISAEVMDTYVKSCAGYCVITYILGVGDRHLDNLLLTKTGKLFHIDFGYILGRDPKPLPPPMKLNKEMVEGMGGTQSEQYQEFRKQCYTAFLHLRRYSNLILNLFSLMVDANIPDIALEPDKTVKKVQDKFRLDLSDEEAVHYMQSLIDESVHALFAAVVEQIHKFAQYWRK

Chain of PI 3-kinase beta (P42338 whole entry): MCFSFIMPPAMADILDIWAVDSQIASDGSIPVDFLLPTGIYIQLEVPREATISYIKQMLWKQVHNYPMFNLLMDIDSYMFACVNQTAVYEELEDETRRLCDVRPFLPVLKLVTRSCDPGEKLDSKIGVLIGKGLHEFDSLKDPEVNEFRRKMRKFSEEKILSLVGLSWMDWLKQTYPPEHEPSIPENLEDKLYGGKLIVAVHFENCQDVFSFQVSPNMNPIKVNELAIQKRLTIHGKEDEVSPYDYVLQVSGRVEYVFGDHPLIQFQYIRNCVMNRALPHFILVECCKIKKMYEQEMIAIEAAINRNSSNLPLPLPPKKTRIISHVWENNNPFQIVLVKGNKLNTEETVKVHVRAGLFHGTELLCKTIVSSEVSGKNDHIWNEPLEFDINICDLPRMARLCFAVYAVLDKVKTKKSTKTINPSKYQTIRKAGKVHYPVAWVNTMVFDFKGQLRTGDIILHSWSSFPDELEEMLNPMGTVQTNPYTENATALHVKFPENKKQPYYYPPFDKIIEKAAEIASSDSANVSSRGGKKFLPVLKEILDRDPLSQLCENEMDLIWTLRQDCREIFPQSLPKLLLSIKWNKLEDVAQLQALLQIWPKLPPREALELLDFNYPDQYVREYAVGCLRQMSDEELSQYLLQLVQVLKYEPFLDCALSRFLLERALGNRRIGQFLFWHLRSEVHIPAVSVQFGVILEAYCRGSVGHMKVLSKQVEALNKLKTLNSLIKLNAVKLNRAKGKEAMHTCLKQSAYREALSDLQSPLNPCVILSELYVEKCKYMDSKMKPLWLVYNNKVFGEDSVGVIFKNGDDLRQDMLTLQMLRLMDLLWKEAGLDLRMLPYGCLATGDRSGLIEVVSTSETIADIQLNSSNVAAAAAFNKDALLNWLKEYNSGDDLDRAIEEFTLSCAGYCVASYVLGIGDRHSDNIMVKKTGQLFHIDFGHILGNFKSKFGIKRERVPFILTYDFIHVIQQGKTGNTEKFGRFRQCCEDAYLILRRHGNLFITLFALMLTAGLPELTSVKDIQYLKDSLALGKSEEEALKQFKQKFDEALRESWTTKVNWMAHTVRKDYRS
Chain of PI 3-kinase beta (P27986 461-568 partner): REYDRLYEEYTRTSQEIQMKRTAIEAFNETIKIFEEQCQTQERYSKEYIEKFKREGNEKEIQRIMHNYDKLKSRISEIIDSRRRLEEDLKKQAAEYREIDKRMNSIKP
Chain of PI 3-kinase gamma (P48736 whole entry): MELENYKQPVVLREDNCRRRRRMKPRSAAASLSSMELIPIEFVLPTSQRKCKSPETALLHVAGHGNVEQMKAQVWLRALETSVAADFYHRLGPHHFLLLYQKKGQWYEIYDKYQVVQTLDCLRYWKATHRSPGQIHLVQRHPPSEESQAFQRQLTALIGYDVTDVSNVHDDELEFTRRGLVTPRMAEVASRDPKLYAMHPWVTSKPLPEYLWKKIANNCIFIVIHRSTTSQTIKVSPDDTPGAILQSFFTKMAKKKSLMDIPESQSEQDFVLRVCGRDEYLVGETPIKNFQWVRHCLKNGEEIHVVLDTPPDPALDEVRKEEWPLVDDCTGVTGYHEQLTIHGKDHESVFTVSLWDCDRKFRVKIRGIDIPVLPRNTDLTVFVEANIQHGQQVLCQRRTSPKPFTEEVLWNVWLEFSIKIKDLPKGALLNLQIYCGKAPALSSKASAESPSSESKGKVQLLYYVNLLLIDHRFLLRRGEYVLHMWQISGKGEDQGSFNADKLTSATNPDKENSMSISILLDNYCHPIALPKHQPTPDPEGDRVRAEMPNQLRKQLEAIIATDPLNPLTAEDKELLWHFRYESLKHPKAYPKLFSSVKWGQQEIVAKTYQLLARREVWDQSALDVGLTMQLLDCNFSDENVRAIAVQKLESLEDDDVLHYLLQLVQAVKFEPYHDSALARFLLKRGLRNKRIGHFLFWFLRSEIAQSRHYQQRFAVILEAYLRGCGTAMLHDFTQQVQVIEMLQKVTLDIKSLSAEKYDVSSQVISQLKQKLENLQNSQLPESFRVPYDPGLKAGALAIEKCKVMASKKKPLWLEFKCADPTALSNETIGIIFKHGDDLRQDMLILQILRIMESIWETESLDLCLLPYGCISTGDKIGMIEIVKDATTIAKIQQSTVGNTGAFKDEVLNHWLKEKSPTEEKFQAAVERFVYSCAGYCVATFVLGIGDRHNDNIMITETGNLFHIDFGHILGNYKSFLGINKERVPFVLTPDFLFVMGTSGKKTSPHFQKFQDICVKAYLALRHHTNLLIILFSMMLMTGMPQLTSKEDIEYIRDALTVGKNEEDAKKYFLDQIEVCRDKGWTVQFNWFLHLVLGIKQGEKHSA
Chain of PI 3-kinase alpha (P42336 whole entry): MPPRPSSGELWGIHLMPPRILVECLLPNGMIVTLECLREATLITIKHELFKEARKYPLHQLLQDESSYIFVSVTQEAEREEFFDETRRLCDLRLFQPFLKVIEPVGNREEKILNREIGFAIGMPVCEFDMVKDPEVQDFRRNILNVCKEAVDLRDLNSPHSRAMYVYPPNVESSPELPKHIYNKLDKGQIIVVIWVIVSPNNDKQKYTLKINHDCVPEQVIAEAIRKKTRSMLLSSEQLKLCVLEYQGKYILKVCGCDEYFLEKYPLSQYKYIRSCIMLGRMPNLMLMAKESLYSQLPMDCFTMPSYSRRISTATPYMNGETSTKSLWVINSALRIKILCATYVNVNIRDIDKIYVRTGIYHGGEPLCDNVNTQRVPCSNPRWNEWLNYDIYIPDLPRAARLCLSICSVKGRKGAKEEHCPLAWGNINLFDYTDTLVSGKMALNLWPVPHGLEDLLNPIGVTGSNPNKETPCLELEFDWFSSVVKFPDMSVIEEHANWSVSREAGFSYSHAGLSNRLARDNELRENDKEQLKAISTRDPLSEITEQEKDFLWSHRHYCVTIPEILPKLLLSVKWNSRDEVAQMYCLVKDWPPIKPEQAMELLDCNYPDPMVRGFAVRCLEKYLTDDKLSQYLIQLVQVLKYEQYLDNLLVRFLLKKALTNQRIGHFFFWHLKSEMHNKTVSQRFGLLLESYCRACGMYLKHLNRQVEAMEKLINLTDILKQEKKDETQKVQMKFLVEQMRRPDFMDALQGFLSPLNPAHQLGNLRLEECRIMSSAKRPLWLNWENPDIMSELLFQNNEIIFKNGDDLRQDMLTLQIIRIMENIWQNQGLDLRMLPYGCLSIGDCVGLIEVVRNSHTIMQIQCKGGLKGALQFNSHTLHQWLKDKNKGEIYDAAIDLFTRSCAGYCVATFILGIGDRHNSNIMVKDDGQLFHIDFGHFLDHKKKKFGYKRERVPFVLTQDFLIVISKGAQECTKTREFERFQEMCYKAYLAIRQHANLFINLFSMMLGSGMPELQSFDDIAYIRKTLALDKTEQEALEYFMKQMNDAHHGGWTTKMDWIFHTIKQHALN
Chain of PI 4-kinase beta (Q9UBF8 whole entry): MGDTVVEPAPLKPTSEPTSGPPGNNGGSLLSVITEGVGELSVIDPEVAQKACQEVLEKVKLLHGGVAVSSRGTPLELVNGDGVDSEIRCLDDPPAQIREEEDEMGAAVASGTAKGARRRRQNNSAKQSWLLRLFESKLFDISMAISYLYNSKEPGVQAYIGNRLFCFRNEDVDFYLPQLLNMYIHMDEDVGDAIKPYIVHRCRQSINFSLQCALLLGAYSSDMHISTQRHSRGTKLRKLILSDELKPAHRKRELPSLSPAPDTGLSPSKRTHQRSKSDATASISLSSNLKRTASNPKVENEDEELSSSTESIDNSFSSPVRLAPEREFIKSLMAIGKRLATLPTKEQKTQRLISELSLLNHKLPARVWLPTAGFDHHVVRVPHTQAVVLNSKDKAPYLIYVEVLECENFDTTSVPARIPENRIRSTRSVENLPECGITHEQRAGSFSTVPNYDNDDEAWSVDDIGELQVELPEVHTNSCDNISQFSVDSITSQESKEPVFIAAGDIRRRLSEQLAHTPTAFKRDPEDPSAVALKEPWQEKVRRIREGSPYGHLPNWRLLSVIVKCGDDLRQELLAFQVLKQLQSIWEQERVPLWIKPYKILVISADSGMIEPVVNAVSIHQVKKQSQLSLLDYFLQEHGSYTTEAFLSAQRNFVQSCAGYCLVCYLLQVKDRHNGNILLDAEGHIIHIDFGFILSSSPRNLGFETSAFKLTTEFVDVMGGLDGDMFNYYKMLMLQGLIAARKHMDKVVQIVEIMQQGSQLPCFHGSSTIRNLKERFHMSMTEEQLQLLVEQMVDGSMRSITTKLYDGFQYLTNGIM

IC50 [1] [nM] | IC50 [2] [nM] | IC50 [3] [nM] | Assay M RLM CI(int) [4] [µL/min/mg] | IC50 [5] [nM] | IC50 [6] [nM] | IC50 [7] [nM] | IC50 [8] [nM] | SMILES
> 10000 | 8700 | 170 | 560 | 740 | > 10000 | > 10000 | > 10000 | Cc1ccc(S(=O)(=O)N2CCC(F)(F)CC2)cc1-c1cnc(N)c(-n2cncn2)n1 [Example 127.33]
5400 | 1200 | 140 | >924 | 690 | > 9100 | 6000 | > 9100 | Cc1cc(-c2nc(-c3cc(S(=O)(=O)NCC(C)(C)N4CCOCC4)ccc3C)cnc2N)ccn1 [Example 129.29, 3-(5-amino-6-(2-methylpyridin-4-yl)pyrazin-2-yl)-4-methyl-N-(2-methyl-2-morpholinopropyl)benzenesulfonamide]
6900 | 940 | 45 | 20 | 420 | > 9100 | > 9100 | > 9100 | Cc1cc(-c2nc(-c3cc(S(=O)(=O)NC[C@H](C)O)ccc3C)cnc2N)ccn1 [Example 129.9, (S)-3-(5-amino-6-(2-methylpyridin-4-yl)pyrazin-2-yl)-N-(2-hydroxypropyl)-4-methylbenzenesulfonamide]
5300 | 1100 | 140 | 159 | 260 | > 9100 | > 9100 | > 9100 | Cc1cc(-c2nc(-c3cc(S(=O)(=O)NCCN4CCOCC4)ccc3C)cnc2N)ccn1 [Example 129.28, 3-(5-amino-6-(2-methylpyridin-4-yl)pyrazin-2-yl)-4-methyl-N-(2-morpholinoethyl)benzenesulfonamide]
 |  |  | 147 |  | 780 |  | 650 | Cc1ncc(-c2nc(-c3cc(S(=O)(=O)NCC(F)(F)F)ccc3C)cnc2N)s1 [Example 45.5, 3-(5-Amino-6-(2-methylthiazol-5-yl)pyrazin-2-yl)-4-methyl-N-(2,2,2-trifluoroethyl)benzenesulfonamide]
2550 | 2100 | 270 | 46 | 2350 | > 9550 | > 9550 | > 9550 | Cc1ccc(S(=O)(=O)NCC(C)(C)O)cc1-c1cnc(N)c(-c2noc(C3CC3)n2)n1 [Example 91, 3-(5-Amino-6-(5-cyclopropyl-1,2,4-oxadiazol-3-yl)pyrazin-2-yl)-N-(2-hydroxy-2-methylpropyl)-4-methylbenzenesulfonamide]
370 | 50 | 18 | 194 | 40 | 5800 |  | 6000 | Cc1ncc(-c2nc(-c3cc(S(=O)(=O)NCC4CCOCC4)ccc3C)cnc2N)s1 [Example 45.2, 3-(5-Amino-6-(2-methylthiazol-5-yl)pyrazin-2-yl)-4-methyl-N-((tetrahydro-2H-pyran-4-yl)methyl)benzenesulfonamide]
1000 | 60 | 4 | 95 | 20 | 2500 |  | 1300 | Cc1ncc(-c2nc(-c3cc(S(=O)(=O)NCC4(C)COC4)ccc3C)cnc2N)s1 [Example 120, 3-(5-Amino-6-(2-methylthiazol-5-yl)pyrazin-2-yl)-4-methyl-N-((3-methyloxetan-3-yl)methyl)benzenesulfonamide]
1200 | 960 | 92 | 31 | 120 | 510 | 5200 | > 10000 | Cc1cc(C)c(S(=O)(=O)NCC(C)(C)O)cc1-c1cnc(N)c(-n2cncn2)n1 [Example 121, 5-(5-Amino-6-(1H-1,2,4-triazol-1-yl)pyrazin-2-yl)-N-(2-hydroxy-2-methylpropyl)-2,4-dimethylbenzenesulfonamide]
7300 | 550 | 24 | 28 | 130 | > 9100 | > 9100 | > 9100 | Cc1cc(-c2nc(-c3cc(S(=O)(=O)NC[C@@H](C)O)ccc3C)cnc2N)ccn1 [Example 129, (R)-3-(5-Amino-6-(2-methylpyridin-4-yl)pyrazin-2-yl)-N-(2-hydroxypropyl)-4-methyl benzene sulfonamide trifluoroacetic acid salt]
> 10000 | 2600 | 210 | 16 | 1400 | > 10000 | > 10000 | > 10000 | Cc1nc(C)c(-c2nc(-c3cc(S(=O)(=O)NCC(C)(C)O)ccc3C)cnc2N)s1 [Example 46.1, 3-(5-Amino-6-(2,4-dimethylthiazol-5-yl)pyrazin-2-yl)-N-(2-hydroxy-2-methylpropyl)-4-methylbenzenesulfonamide]
7800 | 1140 | 110 | 19 | 1020 | 8900 | > 9550 | > 9550 | Cc1ccc(S(=O)(=O)NCC(N)=O)cc1-c1cnc(N)c(-n2cncn2)n1 [Example 133, 2-(3-(5-Amino-6-(1H-1,2,4-triazol-1-yl)pyrazin-2-yl)-4-methylphenylsulfonamido)acetamide]
> 9100 | 6600 | 200 | 755 | > 9100 | > 9100 | > 9100 | > 9100 | Cc1cc(-c2nc(-c3cc(S(=O)(=O)NCC(C)(C)CN(C)C)ccc3C)cnc2N)ccn1 [Example 129.24, 3-(5-amino-6-(2-methylpyridin-4-yl)pyrazin-2-yl)-N-(3-(dimethylamino)-2,2-dimethylpropyl)-4-methylbenzenesulfonamide]
2200 | 1500 | 160 | 20 | 390 | > 10000 | > 10000 | > 10000 | Cc1ccc(S(=O)(=O)NC2CCC(CO)CC2)cc1-c1cnc(N)c(-n2cncn2)n1 (stereo not drawn) [Example 127.6]

SMILES | IC50 [1] [nM] | IC50 [2] [nM] | IC50 [3] [nM] | Assay M RLM CI(int) [4] [µL/min/mg] | IC50 [5] [nM] | IC50 [6] [nM] | IC50 [7] [nM] | IC50 [8] [nM]
Cc1ccc(S(=O)(=O)N2CC3(CC(O)C3)C2)cc1-c1cnc(N)c(-n2cncn2)n1 [Example 101, 2-(3-(5-Amino-6-(1H-1,2,4-triazol-1-yl)pyrazin-2-yl)-4-methylphenylsulfonyl)-2-azaspiro[3.3]heptan-6-ol] | 1700 | 3000 | 210 | 39 | 2000 | 2400 | > 10000 | > 10000
Cc1ncc(-c2nc(-c3cc(S(=O)(=O)N[C@@H]4CCOC4)ccc3C)cnc2N)s1 [Example 45.7a, (R)-3-(5-Amino-6-(2-methylthiazol-5-yl)pyrazin-2-yl)-4-methyl-N-(tetrahydrofuran-3-yl)benzenesulfonamide or (5)-3-(5-Amino-6-(2-methylthiazol-5-yl)pyrazin-2-yl)-4-methyl-N-(tetrahydrofuran-3-yl)benzenesulfonamide] |  |  |  | 151 |  |  |  | 
